Data as given in patent US20040253243A1, “Aptamer therapeutics useful in ocular pharmacotherapy” (priority 2003, published 2004).
pIC50, pKd: −log10 of the molar value. {PEG30K} = 30 kDa polyethylene glycol, attached through the amine; {3T} = T cap; {PEG20K} = 20 kDa polyethylene glycol; [invdT] = inverted (3'-3') thymidine; {NH2} = amine group; m = 2'-O-methyl; r = 2'-OH (RNA); f = 2'-fluoro

Legend:
TGFβ2 [1] = target: T1, TGFβ2 (Homo sapiens, UniProt P61812); experiment: Dot blot binding of doped reselection aptamers to TGFβ2; set-up: For bio-chemical characterization of these aptamers, two forms of mature TGFβ2 were generated, native and N-terminal his-tagged versions, in E. coli; details: CW128_103
T1 sequence (P61812 303-414 limits assumed): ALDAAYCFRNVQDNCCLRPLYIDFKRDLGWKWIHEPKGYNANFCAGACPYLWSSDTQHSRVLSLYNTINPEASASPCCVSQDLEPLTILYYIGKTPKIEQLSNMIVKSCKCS
Method: TGFβ2 was serially diluted in DPBS containing 0.2 mg/ml BSA and 0.2 mg/ml tRNA. ^32P-labeled RNA (<20 pM) were incubated with TGFβ2 at room temperature for 30 min. Samples were pipetted with a multichannel pippetor onto a multiwell manifold holding layers of pre-wetted 0.45 micron nitrocellulose, hybond membrane, 3MM filter paper (the order is from top to bottom), aspirated, and washed 3× with DPBS (containing tRNA). All three filters were air dried, exposed to phosphorimager plate, analyzed by ImageQuant.

PDGF AB and BB = experiment: PDGF binding (Kd); set-up: species or system human; details: read-out: Kd, PDGF AB and BB
[2] = Pharmacokinetics via subconjunctival administration; assay type: in vivo, mice; details: for AUC (0-t) / Cmax / MRT / TLAST / t1/2 / tmax / Vd: subconjunctival, 1 mg/eye bilaterally; for detection in the aqueous humor: after subconjunctival administration
Method: A pharmacokinetic study was performed to determine the pharmacokinetics of ARC81, ARC117 and ARC119, TGFβ2 aptamers having the sequences of SEQ ID NOs:4, 9 and 11, respectively), via subconjunctival administration in mice. These aptamers were formulated at a concentration of 10 mg/ml. Samples were collected at 0, 0.5, 1, 2, 6, 12, 24, 48 and 96 hours post-administration. FIGS. 21A, 21B and 21C show the aqueous humor and/or plasma concentration of each aptamer (in nM) through 50 hours post dose via subconjunctival administration.

TGFβ2 [3] = target: T1, TGFβ2; experiment: Nitrocellulose-filter partitioning binding of 32P-labeled aptamer to TGFβ-2 protein; set-up: A synthetic polynucleotide encoding full length human TGFβ2 mature protein was cloned into pRSET E. coli expression vector; made in house
Method: Dissociation constants for the binding of aptamers to purified human or rodent TGFβ-2 protein were determined by nitrocellulose-filter partitioning using ^32P-labeled RNA. In vitro transcribed RNA was treated with calf-intestinal alkaline phophatase (New England Biolabs) to remove 5′-triphosphates, then radio-labeled by incubation with γ-^32P-ATP and T4 polynucleotide kinase (New England Biolabs). Unincorporated label was removed by gel-filtration, and the RNAs were further purified by polyacrylamide gel electrophoresis (PAGE). Purified ^32P-labeled aptamer in water was refolded just prior to use by heating for 3 min at 95° C., followed by a 10 minute room-temperature incubation in binding buffer (50 mM Hepes, pH 7.4, 1 mM MgCl2, 1 mM CaCl2, 3 mM KCl, 140 mM NaCl, 0.1 mg/ml BSA, 0.01 mg/ml tRNA). The binding reactions (100 μL) were initiated by the addition of aptamer (≦0.1 nM) to excess TGFβ-2 protein (0.2-100 nM), followed by 10-30 minute equilibration at room temperature.
Nitrocellulose-filter partitioning was performed on Minifold® I, 96-well Dot-Blot manifolds (Schleicher & Schuell). Protein-bound aptamer and residual free aptamer were captured, respectively, on pre-wetted Protran nitrocellulose (Schleicher & Schuell) and Hybond-P polyvinylidene difluoride (Amersham Biosciences) filters by vacuum aspiration, and quantified by PhosphorImager (Amersham Biosciences). The proportion of protein-bound aptamer at each TGFβ-2 concentration was plotted as the ratio of counts-per-minute on the Protran nitrocellulose filter (CPMNC) to the sum of CPM on the Protran and Hybond-P filters (CPMtotal). Estimates of dissociation constants (KD) were obtained from a fit of the concentration of TGFβ-2 (i.e., [TGFβ-2])-dependent data to a standard binding isotherm: CPMNC/CPMtotal=Cmax/(1+KD/[TGFβ2]total), where Cmax equals the maximum observed value of CPMNC/CPMtotal at saturating [TGFβ-2], likely reflecting the proportion of properly-folded aptamer that is competent to recognize TGFβ-2.

human TGFβ2 = target: T2, human TGFβ2 (Homo sapiens, UniProt P61812); experiment: MLEC proliferation assay (reversal of TGFβ2-mediated inhibition, BrdU); assay type: cell-based
T2 construct: two forms of mature TGFβ2 were generated, native and N-terminal his-tagged versions, in E. coli; made in house; host or cells: E. coli; added as soluble protein to MLEC
T2 sequence (P61812 303-414): T1 sequence (P61812 303-414 limits assumed)
Method: MLECs were plated at 2,000 cells per well and incubated at 37° C. for 4 hours. Aptamer and TGFβ2 were added at the indicated concentrations for 16 hours at 37° C. Cell proliferation was measured using BrdU incorporation. BrdU assay was performed as recommended by the manufacturer (Roche Diagnostics).
MLEC Assay. The mink lung epithelial cell proliferation assay is performed over two days. On day 1:1) media is aspirated off from Mink Lung Epithelial Cells (MLEC); 2) the MLEC are washed with 10 ml 1×PBS; 3) 3 ml Trypsin is added and Trypsinize for 3 min at 37° C.; 4) quench with 10 ml 0.5% FBS media; 5) spin at 1000 rpm for 3.30 min; 6) aspirate off supernatant; 7) resuspend pellet in 10 ml 0.5% FBS media; 8) Count 10 μl cell suspension; 9) adjust cell density to 80,000 cells/ml; 10) add 50 μl of cells/well to black bottomed 96-well plates (4000 cells/well); pipet up and down during plating process to avoid settling of cells and uneven plating; 11) incubate cells at 37° C. in 5% CO2 for 4 hrs to allow adherence of cells; 12) add 25 μl of aptamer (or media, or other test reagent, such as for example, an antibody), preferably the outer wells are not used for treated cells; 13) add 25 μl of TGFβ2 (typically 25 pg/ml); and 14) incubate cells at 37° C. in 5% CO2 overnight.
On day 2:1) mix 20 μl BrdU with 2 ml 0.5% FBS media; 2) add 10 μl of BrdU mixture/well; 3) incubate cells at 37° C. in 5% CO2 for 3 hrs; 4) remove media and blot plates dry on paper towels; 5) add 200 μl/well FixDenat solution and incubate for 30 min at room temperature (RT); 6) remove FixDenat solution and blot plates dry on paper towels; 7) add 100 μl /well anti-BrdU POD solution and incubate for 90 min at RT; 8) remove anti-BrdU POD solution and blot plates dry on paper towels; 9) wash plates 3× with […] washing solution with 5 min RT incubations and blot plates dry on paper towels; 10) add 100 μl /well substrate solution and incubate for 3 min at RT in dark; and 11) read plates using PSP Luciferace 1 program on TopCount (Packard Bioscience Co., Downers Grove, Ill.).

Chain of PDGF AB and BB (P01127 82-190 limits assumed): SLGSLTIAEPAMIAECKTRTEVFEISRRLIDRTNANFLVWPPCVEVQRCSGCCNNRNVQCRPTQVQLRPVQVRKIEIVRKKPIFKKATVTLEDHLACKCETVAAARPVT

AfCAGAGfUAfUfUAfUAGAGfUAfUGfUAfUAGfCfUAfUAfCfUGfUfC[3T] (ACAGAGUAUUAUAGAGUAUGUAUAGCUAUACUGUC; 2'-fluoro at CU, RNA at AG, 3' {3T}, backbone not given here) [ARC283, minimized S5CR8-45]
pKd (TGFβ2 [1]): 8.90

5′-TdAdCTdCdAdGdGdGdCdAdCTdGdCdAdAdGdCdAdATTdGTdGdGTdCdCdCdAdATdGdGdGdCTdGdAdGTdA-3T-3′ (TACTCAGGGCACTGCAAGCAATTGTGGTCCCAATGGGCTGAGTA; 3' [invdT], sugars by position and backbone not given here; further chemistry not fully specified) [ARC125]
pKd (PDGF AB and BB): 10.00

5′-[PEG30K]-NH2-mGmGmGmGfUfUAfUfUmAfCmAmGmAmGfUfCfUGfUAfUAmGfCfUmGfUmAfCfCfC-3T-3′ (GGGGUUAUUACAGAGUCUGUAUAGCUGUACCC; sugars from the 5' end mmmmffrffmfmmmmfffrfrfrmffmfmfff, 5' {PEG30K}-{NH2}, 3' {3T}, backbone not given here) [ARC119]
AUC (0-t) ([2]; Aq Humour): 133.2 nM·h | Cmax ([2]; Aq Humour): 28.4 nM | MRT ([2]; Aq Humour): 12.80 h | TLAST ([2]; Aq Humour): 48 h | t1/2 ([2]; Aq Humour): 17.52 h | tmax ([2]; Aq Humour): 0.5 h | AUC (0-t) ([2]; PLASMA): 13,380.5 nM · h | Cmax ([2]; PLASMA): 721 nM | MRT ([2]; PLASMA): 17.28 h | TLAST ([2]; PLASMA): 48 h | Vd ([2]; PLASMA): 137 mL | t1/2 ([2]; PLASMA): 6.94 h | tmax ([2]; PLASMA): 12 h | detection in the aqueous humor [2]: detected in the aqueous humor

5′-TdGdGdGdAdGdGdGdCdGdCdGTTdCTTdCdGTdGdGTTdAdCTTTTdAdGTdCdCdCdG-3T-3′ (TGGGAGGGCGCGTTCTTCGTGGTTACTTTTAGTCCCG; 3' [invdT], sugars by position and backbone not given here; further chemistry not fully specified) [ARC123]
pKd (PDGF AB and BB): 10.00

5′-[PEG20K]-NH2-mGmGmGmGfUfUAfUfUmAfCmAmGmAmGfUfCfUGfUAfUAmGfCfUmGfUmAfCfCfC-3T-3′ (GGGGUUAUUACAGAGUCUGUAUAGCUGUACCC; sugars from the 5' end mmmmffrffmfmmmmfffrfrfrmffmfmfff, 5' {PEG20K}-{NH2}, 3' {3T}, backbone not given here; PEG attached through 5' amine linker) [ARC117]
AUC (0-t) ([2]; Aq Humour): 87.6 nM·h | Cmax ([2]; Aq Humour): 22.9 nM | MRT ([2]; Aq Humour): 3.62 h | TLAST ([2]; Aq Humour): 24 h | t1/2 ([2]; Aq Humour): 4.33 h | tmax ([2]; Aq Humour): 1 h | AUC (0-t) ([2]; PLASMA): 1,122.1 nM · h | Cmax ([2]; PLASMA): 145 nM | MRT ([2]; PLASMA): 9.22 h | TLAST ([2]; PLASMA): 48 h | Vd ([2]; PLASMA): 1760 mL | t1/2 ([2]; PLASMA): 7.40 h | tmax ([2]; PLASMA): 6 h | detection in the aqueous humor [2]: detected in the aqueous humor

GAfCAGAGfUAfUfUAfUAGAGfUAfUGfUAfUAGfCfUAfUAfCfUGfU[3T] (GACAGAGUAUUAUAGAGUAUGUAUAGCUAUACUGU; 2'-fluoro at CU, RNA at AG, 3' {3T}, backbone not given here) [ARC284, minimized S5R8-45]
pKd (TGFβ2 [1]): 9.96

AAGGAGfUAfUfUAfUAGAGfUAfUGfUAfUAGfCfUAfUAfCfCAfU[3T] (AAGGAGUAUUAUAGAGUAUGUAUAGCUAUACCAU; 2'-fluoro at CU, RNA at AG, 3' {3T}, backbone not given here) [ARC281, minimized S5CR12-15]
pKd (TGFβ2 [1]): 8.85

5′-NH2-GGAGGfUfUAfUfUAfCAGAGfUfCfUGfUAfUAGfCfUGfUAfCfUfCfC-3T-3′ (GGAGGUUAUUACAGAGUCUGUAUAGCUGUACUCC; 2'-fluoro at CU, RNA at AG, 5' {NH2}, 3' {3T}, backbone not given here) [ARC78]
pKd (TGFβ2 [3]; 32P-labeled aptamer, nitrocellulose-filter partitioning, fit to Equation 1, read-out: Kd): 8.40 | inhibition of the antiproliferative effects of TGFβ2 (human TGFβ2; 50 pg/ml of TGFβ2, BrdU incorporation): inhibit the antiproliferative effects of 50 pg/ml of TGFβ2

AfUAGAGfCAfUfUAfUAGAGfUAfUGfUAfUAGfCfUAfUAfCfUAfU[3T] (AUAGAGCAUUAUAGAGUAUGUAUAGCUAUACUAU; 2'-fluoro at CU, RNA at AG, 3' {3T}, backbone not given here) [CW128.10.F, minimized AMX(71)_C11]
pKd (TGFβ2 [1]): 8.44

AGGGAAfUAfUfUAfUAGAGfUAfUGfUAfUAGfCfUAfUAfCfCAfU[3T] (AGGGAAUAUUAUAGAGUAUGUAUAGCUAUACCAU; 2'-fluoro at CU, RNA at AG, 3' {3T}, backbone not given here) [ARC282, minimized AMX(71)_A8]
pKd (TGFβ2 [1]): 9.21

5′-mGmGmAmGmGfUfUAfUfUmAfCmAmGmAmGfUfCfUGfUAfUAmGfCfUmGfUmAfCfUfCfc-3T-3′ (GGAGGUUAUUACAGAGUCUGUAUAGCUGUACUCC; sugars from the 5' end mmmmmffrffmfmmmmfffrfrfrmffmfmffff, 3' {3T}, backbone not given here) [ARC79]
pKd (TGFβ2 [3]; read-out: KD): 9.00 | pIC50 (human TGFβ2; read-out: cell IC50): 8.00

5′-dCdAdCdAdGdGdCTdAdCdGdGdCdAdCdGTdAdGdAdGdCdATdCdAdCdCdATdGdATdCdCTdGTdG-3T-3′ (CACAGGCTACGGCACGTAGAGCATCACCATGATCCTGTG; 3' [invdT], sugars by position and backbone not given here; further chemistry not fully specified) [ARC124]
pKd (PDGF AB and BB): 10.00
